≈ marks a conversion by molar mass, not a printed value. Counter-ions that a name gives are not always drawn.
Tests used:
[1] = test system: Escherichia coli (4 strains); assay: MIC, broth microdilution, iron-deficient MH medium; type: cell-based; conditions: Escherichia coli; iron-deficient MH medium (16 mg/L 2,2'-bipyridine); clinical isolates (ESBLs); read-out: Antibacterial activity MIC, Escherichia coli (4 strains)
Protocol: (§1) Supplier of the strains: all of the above strains were provided by Sichuan Primed Shines Bio-tech Co., Ltd. A single colony was isolated by streaking on agar plates for each strain prior to the experiment, and the cells freshly cultured at 37° C. overnight were appropriately diluted for the experiment.
(§2) Medium: MH liquid medium (OXOID).
(§3) Culture condition: cells were incubated at 35-37° C. for 16-18 h.
(§4) The broth microdilution method recommended by Clinical and Laboratory Standards Institute (CLSI), Performance Standards for Antimicrobial Susceptibility Testing; Twenty-Third Informational Supplement, M02-All, M07-A9 and M11-A8, 2013 was used to determine the MIC value of each test sample against each test strain in the normal MH medium and iron-deficient MH medium.
(§5) BPL was added to the normal MH medium to obtain a final concentration of 16 mg/L; According to the method in Section 1.2.1, 100 μl of each test sample solution at different concentrations was aspirated to the 1st to 10th well in a 96-well sterile polystyrene plate to obtain the final drug concentrations of 16, 8, 4, 2, 1, 0.5, 0.25, 0.125, 0.06, and 0.03 mg/L, respectively. Then, 100 μl of the test bacterial liquid was added to each well (200 μl per well), and the final concentration of the bacterial liquid was approximately 10^4 CFU/ml. After sealing, it was placed in a 35-37° C. incubator for 18-20 hours for testing the result. The OD600 value was measured by a microplate reader, Minimal Inhibitory Concentration (MIC) of a drug is the lowest concentration of the drug which prevents growth of bacteria in the wells.

[2] = test system: Pseudomonas aeruginosa (4 strains); assay: MIC, broth microdilution, iron-deficient MH medium; type: cell-based; conditions: Pseudomonas aeruginosa; iron-deficient MH medium (16 mg/L 2,2'-bipyridine); multidrug-resistant clinical isolates (integrator I, IMP4); read-out: Antibacterial activity MIC, Pseudomonas aeruginosa (4 strains)
Protocol: as §1, §2, §3, §4, §5

[3] = test system: Acinetobacter baumannii (4 strains); assay: MIC, broth microdilution, iron-deficient MH medium; type: cell-based; conditions: Acinetobacter baumannii; iron-deficient MH medium (16 mg/L 2,2'-bipyridine); multidrug-resistant clinical isolates (integron I, OXA23); read-out: Antibacterial activity MIC, Acinetobacter baumannii (4 strains)
Protocol: as §1, §2, §3, §4, §5

[4] = test system: Klebsiella pneumoniae (4 strains); assay: MIC, broth microdilution, iron-deficient MH medium; type: cell-based; conditions: for MIC: Klebsiella pneumoniae, iron-deficient MH medium (16 mg/L 2,2'-bipyridine), multi-drug resistant clinical isolates (KPC2), read-out: Antibacterial activity MIC, Klebsiella pneumoniae (4 strains); for times more effective than BAL30072 in inhibitory activity against Klebsiella pneumonia: iron-deficient MH medium, from MIC of Table 3
Protocol: as §1, §2, §3, §4, §5

[5] = test system: Escherichia coli ATCC 35218; assay: MIC, broth microdilution, normal MH medium; type: cell-based; conditions: Escherichia coli, ATCC35218, quality control strain, read-out: Antibacterial activity MIC, Escherichia coli ATCC 35218
Protocol: (§6) Strain for quality control: Escherichia coli ATCC35218, purchased from National Center of Clinical Laboratory.
as §2, §3, §4
(§7) After diluting each sample to different concentrations with normal MH medium, 100 μl of each test sample solution at different concentrations was separately aspirated onto a 96-well sterile polystyrene plate. Drug solutions were added to the 1st to 10th well with the final concentrations of 16, 8, 4, 2, 1, 0.5, 0.25, 0.125, 0.06, and 0.03 mg/L in each well, respectively. The 11th well, as a blank control, was not added with drugs and bacteria. The 12th well, as a bacterial growth control, was added with bacteria but no drug.
(§8) The test bacterial liquid was adjusted to a bacterial suspension of 0.5 Mcfarland standard with physiological saline, and diluted with MH broth at 1:100, and then added to the drug solution so that a final concentration of the bacterial liquid was approximately 10^4 CFU/ml; 100 μl of the bacterial liquid was further added to each of the above wells (the total volume in each well is 200 μl), which was sealed and placed in a 35-37° C. incubator for 18-20 h for testing the result. The OD600 value was measured by a microplate reader, Minimal Inhibitory Concentration (MIC) of a drug is the lowest concentration of the drug which prevents growth of bacteria in the wells. 1.2.2 MIC in iron-deficient MH medium

[6] = test system: Escherichia coli (4 strains); assay: MIC, broth microdilution, normal MH medium; type: cell-based; conditions: for MIC: Escherichia coli, clinical isolates (ESBLs), read-out: Antibacterial activity MIC, Escherichia coli (4 strains)
Protocol: as §1, §2, §3, §4, §7, §8

[7] = test system: Pseudomonas aeruginosa (4 strains); assay: MIC, broth microdilution, normal MH medium; type: cell-based; conditions: Pseudomonas aeruginosa, multidrug-resistant clinical isolates (integrator I, IMP4), read-out: Antibacterial activity MIC, Pseudomonas aeruginosa (4 strains)
Protocol: as §1, §2, §3, §4, §7, §8

[8] = test system: Acinetobacter baumannii (4 strains); assay: MIC, broth microdilution, normal MH medium; type: cell-based; conditions: Acinetobacter baumannii, read-out: Antibacterial activity MIC, Acinetobacter baumarmii (4 strains)
Protocol: as §1, §2, §3, §4, §7, §8

[9] = test system: Escherichia coli ATCC 35218; assay: MIC, broth microdilution, iron-deficient MH medium; type: cell-based; conditions: Escherichia coli, ATCC35218; iron-deficient MH medium (16 mg/L 2,2'-bipyridine); quality control strain; read-out: Antibacterial activity MIC, Escherichia coli ATCC 35218
Protocol: as §6, §2, §3, §4, §5

[10] = test system: Klebsiella pneumoniae (4 strains); assay: MIC, broth microdilution, normal MH medium; type: cell-based; conditions: for MIC: Klebsiella pneumoniae, multi-drug resistant clinical isolates (KPC2), read-out: Antibacterial activity MIC, Klebsiella pneumoniae (4 strains)
Protocol: as §1, §2, §3, §4, §7
The OD600 value was measured by a microplate reader, Minimal Inhibitory Concentration (MIC) of a drug is the lowest concentration of the drug which prevents growth of bacteria in the wells. 1.2.2 MIC in iron-deficient MH medium

[11] = test system: multidrug-resistant Klebsiella pneumoniae KR15-4 (KPC2); assay: In vivo efficacy in mice systemically infected with multidrug-resistant Klebsiella pneumoniae KR15-4 (KPC2); conditions: Kunming mice, intraperitoneal infection, drug s.c. 0.5 h and 4 h after infection, deaths over 7 days, Bliss method
Protocol: 4.1 Test strains: clinically isolated pathogenic multidrug-resistant Klebsiella pneumoniae KR15-4 (KPC2), provided by Sichuan Primed Shines Bio-tech Co., Ltd.
4.2 Test animals: Kunming mice, age: 4 to 5 weeks, weight: 18 to 22 g, half male, half female, SPF grade.
4.3 Test methods: Mice were randomly divided into several groups, 5 mice for each group, half male and half female, and 4 doses for each test drug: 12.5, 25, 50 and 100 mg/kg. The mice were intraperitoneally injected with 0.5 mL of 3.0×10^6 CFU/mL bacterial suspension for each mouse, and subcutaneously injected with the drug at the designed dose 0.5 h and 4 h after infection. The subcutaneous injection volume was 0.2 ml/20 g mouse weight; the number of deaths in mice was observed and recorded for 7 consecutive days. According to the number of deaths in mice, the half effective dose ED50 was calculated according to the Bliss method using the DAS 1.0 software, edited by Sun Ruiyuan et al.

Row | SMILES | MIC [1] [µg/mL] | MIC [2] [µg/mL] | MIC [3] [µg/mL] | MIC [4] [µg/mL] | times more effective than BAL30072 in inhibitory activity against Klebsiella pneumonia [4] | MIC [5] [µg/mL] | MIC [6] [µg/mL] | times more effective than BAL30072 in inhibitory activity against Escherichia coli ([6]; from MIC of Table 2) | MIC [7] [µg/mL] | MIC [8] [µg/mL] | MIC [9] [µg/mL] | MIC [10] [µg/mL] | times more effective than BAL30072 in inhibitory activity against Klebsiella pneumoniae ([10]; from MIC of Table 2) [times] | ED50 ([11]; Klebsiella pneumoniae, read-out: ED50 Subcutaneous injection) [mg/kg] | ED50 Subcutaneous injection [11] [mg/kg]
1 | CC(O/N=C(\C(=O)N[C@@H]1C(=O)N(OS(=O)(=O)O)C1(C)C)c1nc(N)sc1Cl)c1cc(=O)c(O)cn1O (stereo partly drawn) [Compound 22, (3S)-3-((Z)-2-(2-amino-5-chlorothiazol-4-yl)-2-((1-(1,5-dihydroxy-4-oxo-1,4-dihydropyridin-2-yl)ethoxyl)imine)acetamido)-2,2-dimethyl-4-oxoazetidine-1-hydrogen sulfate] | 0.06 to 0.25 | 0.5 to 1 | 1 | 1 | 64 times | < 0.03 | 0.06 to 0.5 | 4-16 times | 0.5 to 2 | 2 | < 0.03 | 1 | 64 |  | 
2 | CC(C)[C@H](O/N=C(\C(=O)N[C@@H]1C(=O)N(OS(=O)(=O)O)C1(C)C)c1csc(N)n1)c1cc(=O)c(O)cn1O [Compound 28, (3S)-3-((Z)-2-(2-aminothiazol-4-yl)-2-(((S)-1-(1,5-dihydroxy-4-oxo-1,4-Dihydropyridin-2-yl)-2-methylisopropyloxy)imine)acetamido)-2,2-dimethyl-4-oxoazetidine-1-hydrogen sulfate] | 0.125 to 0.25 | 0.125 to 1 | 1 to 2 | 1 | 64 times |  |  |  |  |  | < 0.03 |  |  |  | 
3 | CO/N=C(\C(=O)N[C@@H]1C(=O)N2C(C(=O)O)=CCS[C@H]12)c1csc(N)n1 [ceftizoxime sodium, reference compound] |  |  |  |  |  | 0.25 | 0.5 to 2 |  | > 64 | 32 to 64 |  | 32 to 64 |  |  | 
4 | C[C@H](O/N=C(\C(=O)N[C@@H]1C(=O)N(OS(=O)(=O)O)C1(C)C)c1nc(N)sc1Cl)c1cc(=O)c(O)cn1O [Compound 26, (S)-3-((Z)-2-(2-amino-5-chlorothiazol-4-yl)-2-(((S)-1-(1,5-dihydroxy-4-oxo-1,4-dihydropyridin-2-yl)ethoxy)imine)acetamido)-2,2-dimethyl-4-oxoazetidine-1-hydrogen sulfate] | 0.03 to 0.25 | 0.25 to 1 | 0.5 to 1 | 0.5 to 4 | 16-128 times | < 0.03 | 0.25 to 1 |  | 0.5 to 1 | 1 | < 0.03 | 1 to 4 |  |  | 
5 | C[C@H]1[C@H](NC(=O)/C(=N\OC(C)(C)C(=O)O)c2csc(N)n2)C(=O)N1S(=O)(=O)O [aztreonam, reference compound] |  |  |  |  |  | 0.5 (≈ 1.15 µM) |  |  |  |  |  |  |  | > 100 | >100
